In patent US11040970B2, “VMAT2 inhibitor compounds and compositions thereof” (Neurocrine Biosciences, Inc., priority 2017, dated 2021):

These compounds were tested against VMAT2 (Homo sapiens (Human), UniProt Q05940) (assay: VMAT2 radioligand binding assay: competition against 3H-dihydrotetrabenezine on human platelet homogenate (modified procedure)). Settings: 10 nM 3H-dihydrotetrabenezine, 25° C., 90 minutes.
Protocol: Examples of techniques for determining the capability of a compound to inhibit VMAT2 are provided below. The procedure is adapted from that described previously (see, e.g., Near, (1986), Mol. Pharmacol. 30: 252-57; Teng, et al., J. Neurochem. 71, 258-65, 1998). Homogenates from human platelets or Sprague-Dawley rat forebrain were prepared by homogenization and then washed by centrifugation as described previously (see, e.g., Hoare et al., (2003) Peptides 24:1881-97). […] Following incubation at 25° C. for two hours, bound radioligand was collected by rapid filtration onto GF/B glass fiber filters using a Unifilter-96 Harvester (PerkinElmer). Filter plates were pre-treated for 10 minutes with 0.1% polyethylenimine, and following harvesting the filter plates were washed with 800 μl VMAT2 binding buffer. Bound radioligand was quantified by scintillation counting using a Topcount NXT (PerkinElmer).
Following incubation at 25° C. for 90 minutes, bound radioligand was collected by rapid filtration onto GF/B glass fiber filters using a Unifilter-96 Harvester (PerkinElmer). Filter plates were pre-treated with 0.1% polyethylenimine and allowed to dry overnight, and following harvesting the filter plates were washed with 800 μl VMAT2 binding buffer. Bound radioligand was quantified by scintillation counting using a Topcount NXT (PerkinElmer).

VMAT2, sequence (Q05940 whole entry): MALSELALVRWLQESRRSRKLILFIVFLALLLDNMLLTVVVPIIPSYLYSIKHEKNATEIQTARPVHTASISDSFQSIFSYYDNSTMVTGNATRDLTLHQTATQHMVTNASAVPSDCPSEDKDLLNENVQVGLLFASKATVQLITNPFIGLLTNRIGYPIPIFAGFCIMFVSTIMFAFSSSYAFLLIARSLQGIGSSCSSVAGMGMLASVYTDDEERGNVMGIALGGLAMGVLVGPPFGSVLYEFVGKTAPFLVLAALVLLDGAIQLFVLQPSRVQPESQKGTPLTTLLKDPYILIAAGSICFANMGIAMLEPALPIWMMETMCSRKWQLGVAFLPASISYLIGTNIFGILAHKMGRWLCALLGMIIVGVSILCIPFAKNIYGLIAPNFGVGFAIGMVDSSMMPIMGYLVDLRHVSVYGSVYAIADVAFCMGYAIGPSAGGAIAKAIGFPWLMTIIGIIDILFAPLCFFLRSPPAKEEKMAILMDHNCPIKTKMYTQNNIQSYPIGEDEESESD

Compound	Ki
COc1cc2c(cc1OCC1CC1(F)F)CCN1C[C@@H](CC3CCC3)N(C)C[C@H]21 (stereo partly drawn) [Compound 8-3, (3R,11bS)-3-(cyclobutylmethyl)-9-[(2,2-difluorocyclopropyl)methoxy]-10-methoxy-2-methyl-1H,2H,3H,4H,6H,7H,11bH-piperazino[2,1-a]isoquinoline]	10 to 500 nM
COc1cc2c(cc1OCCF)CCN1C[C@@H](CC3CCC3)N(C)C[C@H]21 [Compound 8-4, (3R,11bS)-3-(cyclobutylmethyl)-9-(2-fluoroethoxy)-10-methoxy-2-methyl-1H,2H,3H,4H,6H,7H,11bH-piperazino[2,1-a]isoquinoline]	10 to 500 nM
COc1cc2c(cc1OCC1CC1)CCN1C[C@@H](CC3CCC3)N(C)C[C@H]21 [Compound 8-5, (3R,11bS)-3-(cyclobutylmethyl)-9-(cyclopropylmethoxy)-10-methoxy-2-methyl-1H,2H,3H,4H,6H,7H,11bH-piperazino[2,1-a]isoquinoline]	10 to 500 nM
COc1cc2c(cc1OCC1CCC1)CCN1C[C@@H](CC3CCC3)N(C)C[C@H]21 [Compound 8-6, (3R,11bS)-9-(cyclobutylmethoxy)-3-(cyclobutylmethyl)-10-methoxy-2-methyl-1H,2H,3H,4H,6H,7H,11bH-piperazino[2,1-a]isoquinoline]	< 10 nM
COc1cc2c(cc1OCCCC(F)(F)F)CCN1C[C@@H](CC3CCC3)N(C)C[C@H]21 [Compound 8-7, (3R,11bS)-3-(cyclobutylmethyl)-10-methoxy-2-methyl-9-(4,4,4-trifluorobutoxy)-1H,2H,3H,4H,6H,7H,11bH-piperazino[2,1-a]isoquinoline]	10 to 500 nM
COc1cc2c(cc1OCCCCF)CCN1C[C@@H](CC3CCC3)N(C)C[C@H]21 [Compound 8-8, (3R,11bS)-3-(cyclobutylmethyl)-9-(4-fluorobutoxy)-10-methoxy-2-methyl-1H,2H,3H,4H,6H,7H,11bH-piperazino[2,1-a]isoquinoline]	10 to 500 nM
COc1cc2c(cc1OCCCF)CCN1C[C@@H](CC3CCC3)N(C)C[C@@H]21 [Compound 9-1, (3R,11bR)-3-(cyclobutylmethyl)-9-(3-fluoropropoxy)-10-methoxy-2-methyl-1H,2H,3H,4H,6H,7H,11bH-piperazino[2,1-a]isoquinoline]	> 500 nM
COc1cc2c(cc1OCCCF)CCN1C[C@@H](CC(C)(C)C)N(C)C[C@H]21 [Compound 11-1, (3R,11bS)-3-(2,2-dimethylpropyl)-9-(3-fluoropropoxy)-10-methoxy-2-methyl-1H,2H,3H,4H,6H,7H,11bH-piperazino[2,1-a]isoquinoline]	< 10 nM
COc1cc2c(cc1OC)[C@H]1CN(C)[C@H](CC(C)(C)C)CN1CC2 [Compound 11-2, (3R,11bS)-3-(2,2-dimethylpropyl)-9,10-dimethoxy-2-methyl-1H,2H,3H,4H,6H,7H,11bH-piperazino[2,1-a]isoquinoline]	< 10 nM
COc1cc2c(cc1OCC(F)(F)F)CCN1C[C@@H](CC(C)(C)C)N(C)C[C@H]21 [Compound 11-3, (3R,11bS)-3-(2,2-dimethylpropyl)-10-methoxy-2-methyl-9-(2,2,2-trifluoroethoxy)-1H,2H,3H,4H,6H,7H,11bH-piperazino[2,1-a]isoquinoline]	< 10 nM
COc1cc2c(cc1OCC1CC1(F)F)CCN1C[C@@H](CC(C)(C)C)N(C)C[C@H]21 (stereo partly drawn) [Compound 11-4, (3R,11bS)-9-[(2,2-difluorocyclopropyl)methoxy]-3-(2,2-dimethylpropyl)-10-methoxy-2-methyl-1H,2H,3H,4H,6H,7H,11bH-piperazino[2,1-a]isoquinoline]	< 10 nM
COc1cc2c(cc1OCCC(F)(F)F)CCN1C[C@@H](CC(C)(C)C)N(C)C[C@H]21 [Compound 11-5, (3R,11bS)-3-(2,2-dimethylpropyl)-10-methoxy-2-methyl-9-(3,3,3-trifluoropropoxy)-1H,2H,3H,4H,6H,7H,11bH-piperazino[2,1-a]isoquinoline]	< 10 nM
